One data set deals with A2780. The data set is described as follows: cells. Particulars: A2780, 24 h. Here is the method:
(§1) OvCa cells and fibroblasts were seeded in 96 well (10.0 × 10^3) the day before treatment to allow cell adherence. […] Half maximal inhibitory concentrations (IC50) were calculated using CalcuSyn software, v2.1 (Biosoft, Ferguson, MO, USA). Fold resistance (FR) was calculated as the ratio of the IC50 of drug-resistant cell line (KM-H2dx, HDLM-2dx, and A2780cis) to that of the respective parental cell line (KM-H2, HDLM-2, and A2780).

The next data set has as its system HDLM-2. The data set is described as follows: cells. The note with it: HDLM-2, 24 h. Here is the method: as §1
For another data set, the system named is KM-H2. The data set is described as follows: cells. The note with it: KM-H2, 24 h. As to the method:
as §1

The subject of another data set is L-1236. The experiment in a line: cells. Particulars: L-1236, 24 h. As to the method: as §1
In another data set the test system is L-428. The experiment in a line: cells. Particulars: L-428, 24 h. As to the method: as §1
For another data set, the system named is OVCAR5. The experiment in a line: cells. Here is the method: as §1
Another data set concerns SKOV3. The data set is described as follows: cells. Here is the method: as §1
Data set [1] has as its system A2780cis (cisplatin-resistant clone of A2780). The data set is described as follows: cells. Particulars: for IC50: A2780cis, 24 h; for fold resistance (FR): ratio IC50 A2780cis / IC50 A2780. Here is the method: (§2) Authenticated cHL-derived cell lines L-1236, L-428, KM-H2, and HDLM-2 were from DSMZ (Braunschweig, Germany). Doxorubicin-resistant KM-H2dx and HDLM-2dx cells were developed in our laboratory by continuous exposure of KM-H2 and HDLM-2 cells to 35 nM doxorubicin. HDLM-2dx and KM-H2dx cells were maintained in doxorubicin and cultured without the drug 72 h before use. All cell lines are here collectively called “cHL cells”. Authenticated OvCa cell lines A2780 and A2780cis were from Sigma-Aldrich, (Milano, Italy) SKOV3 (HTB-77) were obtained from the American Type Culture Collection (ATCC), OVCAR5 (NIH) were provided by Dr. Baldassarre (CRO, Aviano, Italy). A2780cis cells were maintained in 1 µM cisplatin and cultured without the drug for 72 h before use. […] Peripheral blood mononuclear cells (PBMCs) were obtained from healthy donor blood by density gradient centrifugation on a Ficoll-Paque PLUS (GE Healthcare); they were washed twice with PBS before use and cultured in RPMI-1640 medium containing 10% fetal bovine serum. Human dermal fibroblasts, a generous gift of Dr. Capuano [44], were maintained in Dulbecco′s Modified Eagle′s Medium (DMEM) high glucose (Gibco) plus 10% fetal bovine serum.
as §1

Data set [2] relates to HDLM-2dx (doxorubicin-resistant clone of HDLM-2). The experiment in a line: cells. Particulars: for fold resistance (FR): ratio IC50 HDLM-2dx / IC50 HDLM-2. As to the method:
as §2, §1

In data set [3] the test system is KM-H2dx (doxorubicin-resistant clone of KM-H2). The data set is described as follows: cells. Particulars: for fold resistance (FR): ratio IC50 KM-H2dx / IC50 KM-H2. As to the method: as §2, §1
In data set [4] the test system is human peripheral blood mononuclear cells (PBMCs). The data set is described as follows: Cytotoxicity in healthy cells, MTS assay. Particulars: 24 h, mean (SD). As to the method:
(§3) Authenticated cHL-derived cell lines L-1236, L-428, KM-H2, and HDLM-2 were from DSMZ (Braunschweig, Germany). Doxorubicin-resistant KM-H2dx and HDLM-2dx cells were developed in our laboratory by continuous exposure of KM-H2 and HDLM-2 cells to 35 nM doxorubicin. HDLM-2dx and KM-H2dx cells were maintained in doxorubicin and cultured without the drug 72 h before use. All cell lines are here collectively called “cHL cells”. Authenticated OvCa cell lines A2780 and A2780cis were from Sigma-Aldrich, (Milano, Italy) SKOV3 (HTB-77) were obtained from the American Type Culture Collection (ATCC), OVCAR5 (NIH) were provided by Dr. Baldassarre (CRO, Aviano, Italy). A2780cis cells were maintained in 1 µM cisplatin and cultured without the drug for 72 h before use. […]
as §1
For orientation: Formazan colour is commonly taken as a measure of viable cells.

The next data set deals with human fibroblasts. The data set is described as follows: Cytotoxicity in healthy cells, MTT assay. The note with it: healthy human dermal fibroblasts, 24 h, mean (SD). Here is the method: as §3, §1
Data set [5] has as its system SKOV3-MCTSs. The data set is described as follows: SKOV3 spheroid (MCTS) volume. The data set is classed as cell-based, human. Particulars: 25 µM, 3 days of treatment, four-day old single spheroids. Here is the method:
To obtain the 3 dimensional (3D) SKOV3-MCTSs, cells were cultured in non-adherent conditions on plates coated twice with 20 mg/mL of poly(2-hydroxyethyl methacrylate) (poly-HEMA; Sigma) in 95% ethanol. Single spheroids with defined size were generated by culturing 1.0 × 10^3 SKOV3 cells onto poly-HEMA-coated 96-well for 4 days. Then, single SKOV3-MCTSs were treated with increasing concentrations of peptaibols (0–25 µM). SKOV3-MCTSs size was measured and photographed up to 72 h after treatment initiation using an inverted microscope (Eclipse TS/100, Nikon) with the DS Camera Control Unit DS-L2 photo micrographic system. SKOV3-MCTSs volumes were calculated using the formula: (width^2 × length × 3.14)/6 [47].

In data set [6] the test system is SKOV3-MCTSs. The data set is described as follows: SKOV3 spheroid cell viability, PrestoBlue. The note with it: 24 h treatment. The data set is classed as cell-based, human. An excerpt:
Multiple SKOV3-MCTSs were obtained by seeding 10.0 × 10^3 cells in non-adherent conditions.

Data set [7] has as its system A2780, A2780cis, and KM-H2 cells. The data set is classed as cell-based, human. The note with it: 24 h. Here is the method:
Supplemental Figure S6. Cytotoxic activity of K6-FITC. A2780, A2780cis, and KM-H2 cells were cultured with K6-FITC. After 24 hours cell viability was evaluated by MTT assay for A2780 and A2780cis and by MTS assay for KM-H2 cells. Results are mean and SD of three independent experiments. IC50 was calculated using Calcusyn software.
(1 picture or pasted object on this page, not shown here)

The next data set relates to A2780 and A2780cis. The experiment in a line: K6-FITC uptake, time-lapse confocal microscopy with PI. The note with it: 30 µM K6-FITC, 37 °C. The data set is classed as cell-based, human. Here is the method: (§4) The uptake of peptaibols was evaluated by confocal microscopy and flow cytometry using the fluorescent K6-FITC analog. For confocal microscopy, cells were plated onto glass bottom culture dishes and treated with K6-FITC (30 µM) and propidium iodide (PI) 2 µg/mL. K6-FITC uptake was monitored using confocal microscope in time-lapse xyzt acquisition mode (Leica DM IRE2) keeping cells at 37 °C and 5% CO2. To trace peptaibol penetration in spheroids, single four-day-old SKOV3-MCTs were incubated with K6-FITC (20 µM) and images acquired using confocal microscopy.

The next data set concerns KM-H2 cells. The data set is described as above. The data set is classed as cell-based, human. The note with it: KM-H2, 30 µM K6-FITC, PI 2 µg/mL, 60 min of incubation, 37 °C. As to the method:
as §4

In data set [8] the test system is SKOV3-MCTSs. The experiment in a line: K6-FITC penetration in spheroids, confocal microscopy. It is filed as cell-based, human. Particulars: 20 µM K6-FITC, four-day-old single spheroids, confocal time-lapse. Here is the method: as §4
The subject of data set [9] is A2780 and HDLM-2 vs PBMCs and fibroblasts. The experiment in a line: K6-FITC uptake by flow cytometry, tumor vs normal cells. It is filed as cell-based, human. The note with it: 0.25–2.5 µM K6-FITC, 5, 30 and 120 min, three independent experiments. Here is the method:
For flow cytometry, cells were treated with different concentrations of K6-FITC (0–2.5 µM). After 5, 30 and 120 min of incubation, cells were washed and evaluated for green fluorescence intensity by flow cytometry on a BD FACSCanto II flow cytometer. Annexin-V assay: cells were treated with peptaibols for 24 h, then stained for 15 min with FITC AnnexinV (Thermo Fisher Scientific, Monza, Italy) and 7-Amino-Actinomycin D (7AAD) (BD Pharmingen, Milano, Italy) and analyzed using flow cytometry. Data were analyzed using BD FACSDiva v.8.0.1 software (BD Biosciences, Milano, Italy).
(In flow cytometry, cells or beads pass a laser one at a time.)

In the case of `COc1cccc2c1C(=O)c1c(O)c3c(c(O)c1C2=O)C[C@@](O)(C(=O)CO)C[C@@H]3O[C@H]1C[C@H](N)[C@H](O)[C@H](C)O1` [Doxorubicin], the IC50 in the data set on A2780 (Homo sapiens) came to 0.0204 µM; with HDLM-2 (Homo sapiens), 40.5 nM; in the data set with KM-H2 (Homo sapiens) it was 0.0221 µM; with L-1236 (Homo sapiens), 46.4 nM; in the data set with L-428 (Homo sapiens) it was 18.4 nM; with OVCAR5 (Homo sapiens, OVCAR-5, 24 h), 0.47 µM. The IC50 in the data set on SKOV3 (Homo sapiens, SK-OV-3, 24 h) is 0.13 µM; in [1] (Homo sapiens), 0.116 µM; in [2] (Homo sapiens, HDLM-2, 24 h), 0.368 µM; in data set [3] (Homo sapiens, KM-H2, 24 h), 202 nM. Besides, the “fold resistance (FR)” value in data set [1] is recorded as 5.6; in data set [2], 9; in data set [3], 9.
With `N.N.[Cl][Pt][Cl]` [Cisplatin, cisplatin], the IC50 in the data set with A2780 (MTT, mean (SD)) amounted to 1.3 µM; in the data set with HDLM-2 (MTS, mean (SD)) it was 1300 nM; in the data set on KM-H2 (MTS, mean (SD)) it was 0.5 µM; in the data set on L-1236 (MTS, mean (SD)), 800 nM; in the data set with L-428 (MTS, mean (SD)), 500 nM; in the data set with OVCAR5 (OVCAR5, 24 h, MTT, mean (SD)) it was 7.7 µM. Also, the IC50 in the data set on SKOV3 (SKOV3, 24 h, MTT, mean (SD)) was 7.7 µM; in data set [1] (MTT, mean (SD)), 10.4 µM; in data set [2] (HDLM-2dx, 24 h, MTS, mean (SD)), 4 µM; in [3] (KM-H2dx, 24 h, MTS, mean (SD)) it was 1200 nM. Besides, the “fold resistance (FR)” value worked out at 8 in data set [1], 3.11 in [2] and 2.6 in data set [3].
For `CCCCCCCC(=O)NC(C)(C)C(=O)NCC(=O)N[C@@H](CC(C)C)C(=O)NC(C)(C)C(=O)NCC(=O)N[C@@H](CCCCN)C(=O)N[C@@H](CC(C)C)C(=O)NC(C)(C)C(=O)NCC(=O)N[C@H](C(=O)N[C@H](CO)CC(C)C)[C@@H](C)CC` [K6-Lol], the IC50 in the data set with A2780 (MTT, mean (SD)) was found to be 7.9 µM; with HDLM-2 (MTS, mean (SD)) it was 12600 nM; with KM-H2 (MTS, mean (SD)) it was 7.5 µM; with L-1236 (MTS, mean (SD)), 11700 nM; in the data set on L-428 (MTS, mean (SD)) it was 8900 nM; in the data set with OVCAR5 (OVCAR5, 24 h, MTT, mean (SD)) it was 7.5 µM. For the same compound, the IC50 is 8.4 µM in the data set with SKOV3 (SKOV3, 24 h, MTT, mean (SD)); 9.1 µM in [1] (MTT, mean (SD)); 11.9 µM in data set [2] (HDLM-2dx, 24 h, MTS, mean (SD)); 7200 nM in data set [3] (KM-H2dx, 24 h, MTS, mean (SD)); 7.1 (0.4) µM in [4]; 15.0 (1.4) µM with human fibroblasts. In addition, the “fold resistance (FR)” value in [2] and in data set [3] was around 1 each time. For the same compound, the SKOV3-MCTS volume result in the data set with SKOV3-MCTSs [5] is given as “completely eliminated them”. In the data set with SKOV3-MCTSs [6], the SKOV3-MCTS cell viability result is reported as “dose-dependent decrease”.
As to `CCCCCCCC(=O)NC(C)(C)C(=O)NCC(=O)N[C@@H](CC(C)C)C(=O)NC(C)(C)C(=O)NCC(=O)N[C@@H](CCCCN)C(=O)N[C@@H](CC(C)C)C(=O)NC(C)(C)C(=O)NCC(=O)N[C@H](C(=O)N[C@@H](CC(C)C)C(=O)NCCNC(=S)Nc1ccc2c(c1)C(=O)OC21c2ccc(O)cc2Oc2cc(O)ccc21)[C@@H](C)CC` [K6-FITC], the IC50 in the data set with A2780 (MTT, mean (SD)) was 24.5 µM; with KM-H2 (MTS, mean (SD)), 30 µM; in [1] (MTT, mean (SD)), 29 µM; in data set [7] it was around 30 µM. Moreover, the uptake entry in the data set with A2780 and A2780cis is “rapidly taken up in both cell lines”. The “uptake and PI staining” value in the data set on KM-H2 cells is given as “all cells were double stained”. In addition, in the data set with SKOV3-MCTSs [8], the “penetration into SKOV3-MCTSs” value is “rapidly and deeply penetrated”. Besides, the “uptake (mean fluorescence intensity) by tumor cells compared with normal cells” value in data set [9] was “in a higher quantity and in a faster way”.

Values taken from article PMC8394784, “Analogs of a Natural Peptaibol Exert Anticancer Activity in Both Cisplatin- and Doxorubicin-Resistant Cells and in Multicellular Tumor Spheroids” (International Journal of Molecular Sciences, 2021).
